From the supplement of paper PMC10307832

Columns and labels:
Assay in all cases: relative viability (nuclei count vs DMSO), 5 days (fraction); higher = more cells survive
[1] = compound: COC1=C(C=C(C=C1)C2=CC3=NC=CN3C(=N2)NC4=C(C=CC=N4)C(=O)N)OC [BAY61-3606] + Cc1cc(Nc2cc(N3CCN(C)CC3)nc(Sc3ccc(NC(=O)C4CC4)cc3)n2)n[nH]1 [Tozasertib] (partner 0.1 µM)
In short: (§1)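 Lung cancer cell lines were seeded in 1536-well plates and dosed by pin tool the next day, with either a single drug or a fixed anchor-drug dose combined with five library-drug doses (not always all listed) spaced in √10 steps. Five days later, one step fixed the cells and stained their nuclei (final 0.05% Triton X-100, 1% formaldehyde, 1 ug/ml Hoechst), and nuclei were counted on 4× images. Relative viability is the nuclei count in treated wells divided by the count in vehicle wells, and each value is the median of duplicate plates.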

[2] = compound: COC1=C(C=C(C=C1)C2=CC3=NC=CN3C(=N2)NC4=C(C=CC=N4)C(=O)N)OC [BAY61-3606] + N=C(N)NC(=N)NCCc1ccccc1 [Phenformin] (partner 250 µM)
In short: as §1

[3] = compound: COc1cccc2c1C(=O)c1c(O)c3c(c(O)c1C2=O)C[C@@](O)(C(=O)CO)C[C@@H]3O[C@H]1C[C@H](N)[C@H](O)[C@H](C)O1 [Doxorubicin] + CC(C)C[C@H](NC(=O)[C@H](Cc1ccccc1)NC(=O)c1cnccn1)B(O)O [Bortezomib] (partner 0.002 µM)
In short: as §1

[4] = compound: COc1cccc2c1C(=O)c1c(O)c3c(c(O)c1C2=O)C[C@@](O)(C(=O)CO)C[C@@H]3O[C@H]1C[C@H](N)[C@H](O)[C@H](C)O1 [Doxorubicin] + CS(=O)(=O)CCNCc1ccc(-c2ccc3ncnc(Nc4ccc(OCc5cccc(F)c5)c(Cl)c4)c3c2)o1 [Lapatinib] (partner 2 µM)
In short: as §1

Cell Line	relative viability ([1]; first compound 0.02 µM)	relative viability ([1]; first compound 0.06325 µM)	relative viability ([1]; first compound 0.2 µM)	relative viability ([1]; first compound 0.6325 µM)	relative viability ([1]; first compound 2 µM)	relative viability ([2]; first compound 0.02 µM)	relative viability ([2]; first compound 0.06325 µM)	relative viability ([2]; first compound 0.2 µM)	relative viability ([2]; first compound 0.6325 µM)	relative viability ([2]; first compound 2 µM)	relative viability ([3]; first compound 0.001 µM)	relative viability ([3]; first compound 0.003162 µM)	relative viability ([3]; first compound 0.01 µM)	relative viability ([3]; first compound 0.03162 µM)	relative viability ([3]; first compound 0.1 µM)	relative viability ([4]; first compound 0.001 µM)	relative viability ([4]; first compound 0.003162 µM)	relative viability ([4]; first compound 0.01 µM)	relative viability ([4]; first compound 0.03162 µM)	relative viability ([4]; first compound 0.1 µM)
HCC-15	0.29	0.194	0.222	0.2	0.149	0.474	0.457	0.458	0.474	0.454	0.953	1.02	0.923	0.623	0.636	0.661	0.91	0.657	0.563	0.552
HCC-44	0.91	–	0.832	0.533	0.327	0.189	0.134	0.141	0.251	0.182	0.947	0.988	0.891	0.949	0.828	0.988	1.02	0.954	0.979	0.815
HCC-78	0.499	0.317	0.312	0.415	0.28	0.769	0.719	0.688	0.848	0.915	0.322	0.532	0.419	0.392	0.562	0.752	0.723	0.77	0.673	0.466
HCC-366	0.115	0.0576	0.0642	0.0443	0.0501	0.642	0.512	0.613	0.565	0.504	–	1.06	1.05	0.326	0.0968	–	1.09	1	0.168	0.145
HCC-827	0.412	0.415	0.373	0.387	0.38	0.392	0.435	0.389	0.358	0.347	1.05	1.03	1.07	1.01	0.956	0.322	0.322	0.182	0.201	0.22
HOP-62	0.323	0.224	0.297	0.286	0.144	0.629	0.645	0.635	0.667	0.534	0.779	0.864	0.657	0.767	0.632	0.811	1.15	1.02	1.1	0.853
LC-2-ad	0.404	0.308	0.387	0.44	0.345	0.613	0.539	0.592	0.6	0.563	1.01	0.962	0.995	0.834	0.544	0.838	0.958	0.935	0.697	0.255
LCLC-97TM1	0.17	0.184	0.233	0.147	0.0986	0.419	0.441	0.455	0.415	0.451	0.528	0.434	0.265	0.151	0.0908	1.13	0.917	0.847	0.63	0.579
LOU-NH91	0.617	0.363	0.473	0.422	0.344	0.716	0.697	0.695	0.702	0.649	0.493	0.477	0.479	0.487	0.407	–	0.736	0.765	0.579	0.599
LU99A	0.279	0.216	0.217	0.239	0.177	0.938	0.759	0.735	0.755	0.708	1.1	1.23	1.14	0.764	0.5	1.01	1.16	0.954	0.583	0.788
LXF-289	0.227	0.183	0.194	0.16	0.165	0.494	0.526	0.462	0.549	0.491	1.01	1.02	0.998	0.996	0.926	0.865	0.886	0.864	0.891	0.823
NCI-H23	0.378	0.342	0.296	0.342	0.236	0.85	0.796	0.764	0.78	0.714	–	1.06	0.93	0.514	0.567	–	1.1	0.852	0.481	0.43
NCI-H322M	0.498	0.477	0.48	0.421	0.412	0.824	0.71	0.812	0.773	0.626	1.45	1.21	1.28	1.27	1.18	0.636	0.563	0.547	0.521	0.569
NCI-H460	0.447	0.0447	0.139	0.0713	0.0263	0.549	0.48	0.494	0.493	0.106	0.981	0.964	0.244	0.0223	0.0093	0.86	0.592	0.247	0.0187	0.0161
NCI-H520	0.48	0.432	0.461	0.452	0.356	0.552	0.446	0.659	0.67	0.51	0.575	0.581	0.46	0.361	0.269	0.881	0.965	0.753	0.48	0.248
NCI-H596	1.2	0.941	0.746	0.844	0.435	0.803	0.806	0.793	0.793	0.737	–	1.26	1.01	0.928	0.972	1.08	1.1	1.05	0.943	1.03

Cell Line	relative viability ([1]; first compound 0.02 µM)	relative viability ([1]; first compound 0.06325 µM)	relative viability ([1]; first compound 0.2 µM)	relative viability ([1]; first compound 0.6325 µM)	relative viability ([1]; first compound 2 µM)	relative viability ([2]; first compound 0.02 µM)	relative viability ([2]; first compound 0.06325 µM)	relative viability ([2]; first compound 0.2 µM)	relative viability ([2]; first compound 0.6325 µM)	relative viability ([2]; first compound 2 µM)	relative viability ([3]; first compound 0.001 µM)	relative viability ([3]; first compound 0.003162 µM)	relative viability ([3]; first compound 0.01 µM)	relative viability ([3]; first compound 0.03162 µM)	relative viability ([3]; first compound 0.1 µM)	relative viability ([4]; first compound 0.001 µM)	relative viability ([4]; first compound 0.003162 µM)	relative viability ([4]; first compound 0.01 µM)	relative viability ([4]; first compound 0.03162 µM)	relative viability ([4]; first compound 0.1 µM)
NCI-H647	0.339	0.176	0.167	0.258	0.131	0.562	0.294	0.496	0.393	0.29	1.03	1.04	0.907	0.213	0.111	1.02	1.24	0.643	0.119	0.0876
NCI-H650	0.795	0.263	0.648	0.455	0.226	0.435	0.42	0.375	0.428	0.405	0.862	0.688	0.914	0.697	0.511	0.925	0.838	0.837	0.595	0.0014
NCI-H661	0.357	0.358	0.37	0.378	0.362	0.271	0.283	0.28	0.254	0.248	0.919	0.849	0.836	0.776	0.865	0.506	0.515	0.492	0.498	0.493
NCI-H727	0.799	0.593	0.521	0.656	0.442	0.68	0.554	0.542	0.553	0.541	0.794	0.985	0.656	0.658	0.613	0.76	0.784	0.792	0.666	0.681
NCI-H838	0.285	0.224	0.234	0.23	0.224	0.628	0.489	0.621	0.388	0.277	0.89	1.03	0.967	0.384	0.17	1.02	1.06	0.834	0.375	0.195
NCI-H1355	0.568	0.344	0.49	0.344	0.214	0.484	0.368	0.406	0.448	0.41	1.08	1.32	1.14	1.28	1.29	0.952	1.08	0.963	0.888	0.856
NCI-H1437	0.402	0.391	0.428	0.416	0.374	0.345	0.312	0.304	0.283	0.284	0.491	0.605	0.472	0.205	0.185	0.772	0.836	0.61	0.278	0.209
NCI-H1650	0.362	0.265	0.264	0.329	0.204	0.506	0.351	0.48	0.378	0.224	0.215	0.185	0.187	0.185	0.168	0.208	0.612	0.25	0.202	0.14
NCI-H1651	0.726	0.488	0.503	0.55	0.356	0.332	0.311	0.325	0.279	0.302	0.987	0.958	0.869	0.842	0.902	0.784	0.729	0.475	0.166	0.129
NCI-H1666	0.6	0.572	0.492	0.473	0.458	0.544	0.538	0.524	0.531	0.491	0.833	0.559	0.476	0.302	0.272	0.699	0.507	0.296	0.25	0.236
NCI-H1734	0.238	0.243	0.222	0.227	0.196	0.446	0.338	0.288	0.354	0.244	0.867	1.09	0.89	0.588	0.429	1.07	1.06	0.948	0.53	0.466
NCI-H1755	0.681	0.422	0.49	0.438	0.403	0.666	0.6	0.578	0.656	0.59	0.99	0.947	0.985	0.981	0.969	0.962	1.05	0.991	1.07	0.998
NCI-H1915	0.416	0.329	0.365	0.277	0.152	0.369	0.376	0.328	0.366	0.261	0.994	0.943	0.927	0.94	1	0.975	0.929	0.99	0.975	0.99
NCI-H1975	0.763	0.521	0.323	0.257	0.11	0.41	0.413	0.412	0.394	0.301	0.433	0.364	0.321	0.226	0.165	0.887	0.902	0.719	0.253	0.202
NCI-H1993	0.521	0.582	0.621	0.59	0.577	0.547	0.502	0.545	0.493	0.543	1.1	0.945	1.06	0.634	0.439	0.823	0.778	0.748	0.633	0.501
NCI-H2009	0.847	0.648	0.67	0.651	0.511	0.524	0.38	0.469	0.524	0.424	0.914	1.1	0.912	0.572	0.266	0.912	0.245	0.763	0.376	0.283
